From patent publication US10071098B2, “Compositions useful for treating herpes simplex labialis and/or herpes esophagitis, and methods using same” (DREXEL UNIVERSITY, priority 2014, dated 2018)

Columns and labels:
[1] = system: HSV-1 strain KOS; assay: HSV-1 replication in OKF6 cells (qPCR genome copy number and viral yield); assay type: cell-based; conditions: for HSV-1 replication over time course of lytic infection (genome copy number, viral yield): MOI=0.1, FIGS. 8A-8B; for HSV-1 replication as measured by qPCR and viral yield, dose dependence: MOI=0.1, analysis at 20 hours post infection, FIGS. 7A-7C; for effect on reducing HSV-1 replication when combined with acyclovir: low dose of inhibitor combined with low doses of acyclovir, MOI=0.1, FIGS. 11A-11B
Procedure: (§1) All cells were cultured at 37° C. and 5% CO2 and supplemented with 100 U/mL penicillin and 100 U/mL streptomycin. OKF6/TERT2 human oral mucosal keratinocyte cells were cultured in GIBCO Keratinocyte serum free medium (K-sfm) supplemented with bovine pituitary extract, epidermal growth factor, and calcium chloride (Life Technologies Carlsbad, Calif.). These cells are immortalized by expression of hTERT (Dickson, et al., 2000, Mol. Cell. Biol. 20(4):1436-1447). EPC2 human esophageal epithelial cells were cultured in K-sfm (Carlsbad, Calif.). KOS strain (Smith, Proc. Soc. Exp. Biol. Med. Soc. Exp. Biol. Med. 115:814-816) of HSV-1 was used in all infections. All viral stocks were titered on CV-1 monolayers.
(§2) Subconfluent monolayers of cells were grown in six-well plates. Drug treatments were administered 60 minutes prior to infection and continued for the entire duration of each experiment. Infections with KOS strain of HSV-1 were carried out in six-well plates in a 200 μL inoculum volume at 37° C. for 1 hour with intermittent rocking. The cells were then rinsed and overlaid with fresh medium.
(§3) Unless indicated otherwise, KU-55933 (Batch No. 5, 99.7% purity; Tocris Bioscience, Bristol, UK) and Chk2 Inhibitor II (Sigma-Aldrich, St. Louis, Mo.) were used at 10 μM final concentration, phosphonoacetic acid (PAA) at 400 μg/mL (Sigma-Aldrich, St. Louis, Mo.), and acyclovir at 50 μg/mL (Sigma-Aldrich). KU-55933 and Chk2 Inhibitor II were dissolved in dimethyl sulfoxide (DMSO), and the final concentration of DMSO for KU-55933, Chk2 Inhibitor II, and mock treatments for all in vitro experiments was 0.1%.
(§4) Viral genome replication and transcription were measured by quantitative PCR (qPCR). Total DNA and RNA from infected cells were isolated using the DNeasy Blood & Tissue Kit and the RNeasy Mini Kit, respectively (QIAGEN, Hilden, Germany). RNA was converted to cDNA using qScript (Quanta BioSciences, Gaithersburg, Md.). Real-time qPCR was performed with SYBR Green (Bio-Rad, Hercules, Calif.). Target primers for UL30 (DNA polymerase catalytic subunit) and reference primers for glyceraldehyde 3-phosphate dehydrogenase (GAPDH) were used to measure genome replication. Transcription of the three gene families was measured with primers for RL2 (ICP0), UL30 (DNA polymerase catalytic subunit), UL23 (thymidine kinase), and UL44 (gC), with reference primers for the 18S ribosomal RNA (rRNA).

[2] = system: HSV-1 strain KOS; assay: Protein synthesis of HSV-1 factors in infected OKF6 cells (Western blot); assay type: cell-based; conditions: for protein synthesis of HSV-1 early gene ICP8 / protein synthesis of HSV-1 immediate early gene ICP0 / protein synthesis of HSV-1 leaky-late gene gB / protein synthesis of HSV-1 true-late gene gC: MOI=5, FIGS. 9A-9B; for gC level, inhibitor applied before infection or up to 1 hour post infection / gC level, inhibitor applied between 2 to 3 hours post infection: MOI=5, FIGS. 10A-10B; for gC level, inhibitor applied 4 hours post infection: MOI=5, compared to wild type infection, FIGS. 10A-10B
Procedure: as §1
Subconfluent monolayers of cells were grown in six-well plates. […] Infections with KOS strain of HSV-1 were carried out in six-well plates in a 200 μL inoculum volume at 37° C. for 1 hour with intermittent rocking. The cells were then rinsed and overlaid with fresh medium.
as §3
Standard protocol was followed for Western blot analysis. Cell lysates were collected in 200 μL Laemmli buffer, vortexed, and boiled at 95° C. for 5 minutes. Protein concentrations were measured by bicinchoninic acid (BCA) assay. SDS-PAGE was followed by transfer onto a polyvinylidene difluoride (PVDF) membrane, which was then blocked in 5% BSA. Primary antibodies against the following proteins were used: ICP0 (mouse monoclonal; Virusys Corporation, Taneytown, Md.), ICP4 and nucleolin (both mouse monoclonal; Santa Cruz Biotechnology, Santa Cruz, Calif.), ICP8 (rabbit polyclonal), glycoprotein B and C (mouse monoclonal and rabbit polyclonal, respectively), ATM and pATM S1981 (rabbit polyclonal and mouse monoclonal, respectively; Rockland), Chk2 and pChk2 T68 (rabbit polyclonal and mouse monoclonal, respectively; Cell Signaling). Blots were stained with secondary antibodies and visualized with the Odyssey near-infrared system (LI-COR, Lincoln, Nebr.).

[3] = system: HSV-1 strain KOS; assay: Transcription of HSV-1 genes in infected OKF6 cells (qPCR); assay type: cell-based; conditions: for effect on viral early factor thymidine kinase: MOI=0.1, FIGS. 9C-9E; for transcription of true-late gene gC: qPCR, MOI=0.1, FIG. 9E
Procedure: as §1, §2, §3, §4

[4] = system: acyclovir-resistant strain of HSV-1, dlspTK; assay: Replication of acyclovir-resistant HSV-1 in OKF6 cells; assay type: cell-based; conditions: MOI=0.1, FIGS. 12A-12B
[5] = system: HSV-1; assay: In vivo model of HSV-1 lip infection (herpes simplex labialis) in mice; conditions: BALB/c mice infected on the lower lip; applied every 4 hours for first 12 hours, then every 8 hours for 5 days; FIGS. 13A-13B
Procedure: KU-55933 and Chk2 Inhibitor II were also efficacious at reducing HSV-1 in an in vivo model of infection (FIGS. 13A-13B). BALB/c mice were infected with HSV-1 on the lower lip, and KU-55933 or Chk2 Inhibitor II was applied every 4 hours for the first 12 hours post infection followed by treatments every 8 hours for the next 5 days. The mice were scored based on the severity of the symptoms, and tracked over the course of infection.

[6] = system: ATM; assay: ATM activation in HSV-1-infected OKF6 cells (Western blot); assay type: cell-based, human; conditions: MOI=5.0, FIG. 6
Procedure: All cells were cultured at 37° C. and 5% CO2 and supplemented with 100 U/mL penicillin and 100 U/mL streptomycin. OKF6/TERT2 human oral mucosal keratinocyte cells were cultured in GIBCO Keratinocyte serum free medium (K-sfm) supplemented with bovine pituitary extract, epidermal growth factor, and calcium chloride (Life Technologies Carlsbad, Calif.). […] KOS strain (Smith, Proc. Soc. Exp. Biol. Med. Soc. Exp. Biol. Med. 115:814-816) of HSV-1 was used in all infections. All viral stocks were titered on CV-1 monolayers.
Unless indicated otherwise, KU-55933 (Batch No. 5, 99.7% purity; Tocris Bioscience, Bristol, UK) and Chk2 Inhibitor II (Sigma-Aldrich, St. Louis, Mo.) were used at 10 μM final concentration, phosphonoacetic acid (PAA) at 400 μg/mL (Sigma-Aldrich, St. Louis, Mo.), and acyclovir at 50 μg/mL (Sigma-Aldrich). […]
Standard protocol was followed for Western blot analysis. […] Protein concentrations were measured by bicinchoninic acid (BCA) assay. […]

| Structure (SMILES) | HSV-1 replication over time course of lytic infection (genome copy number, viral yield) [1] | HSV-1 replication as measured by qPCR and viral yield, dose dependence [1] | effect on reducing HSV-1 replication when combined with acyclovir [1] | protein synthesis of HSV-1 early gene ICP8 [2] | protein synthesis of HSV-1 immediate early gene ICP0 [2] | protein synthesis of HSV-1 leaky-late gene gB [2] | protein synthesis of HSV-1 true-late gene gC [2] | gC level, inhibitor applied before infection or up to 1 hour post infection [2] | gC level, inhibitor applied between 2 to 3 hours post infection [2] | gC level, inhibitor applied 4 hours post infection [2] | effect on viral early factor thymidine kinase [3] | transcription of true-late gene gC [3] | replication (genome copy numbers) of acyclovir-resistant HSV-1 strain dlspTK [4] | severity of symptoms (score) during the time course of infection [5] | ATM activation [6] |
| --- | --- | --- | --- | --- | --- | --- | --- | --- | --- | --- | --- | --- | --- | --- | --- |
| NC(=O)c1ccc2[nH]c(-c3ccc(Oc4ccc(Cl)cc4)cc3)nc2c1 [Chk2 Inhibitor II, 2-(4-(4-chlorophenoxy)phenyl)-1H-benzimidazole-5-carboxamide] | reduced HSV-1 replication throughout the entire time course of lytic infection | reduced HSV-1 replication in a dose dependent manner | additive to greater-than-additive effect | no impact | no impact | no impact | large reduction | large reduction of gC | Low levels of gC were produced | no impact on gC levels | minimal effect | prevent the transcription | greatly reduced replication | statistically significant decrease in the severity of symptoms | – |
| O=c1cc(-c2cccc3c2Sc2ccccc2S3)oc(N2CCOCC2)c1 [KU-55933, 2-(morpholin-4-yl)-6-(thianthren-1-yl)-pyran-4-one] | reduced HSV-1 replication throughout the entire time course of lytic infection | reduced HSV-1 replication in a dose dependent manner | additive to greater-than-additive effect | no impact | no impact | no impact | large reduction | large reduction of gC | Low levels of gC were produced | no impact on gC levels | minimal effect | reduction | greatly reduced replication | statistically significant decrease in the severity of symptoms | inhibited ATM activation |
